Here are results for 2 compounds from publication PMC4586312 (Nanomedicine : nanotechnology, biology, and medicine, 2015).

By IC50 is commonly meant the midpoint of a concentration-inhibition curve.

The target in assay [1] is T1, cathepsin B (Homo sapiens, UniProt P07858). Briefly: fluorescence protease assay. In kind it is biochemical.
In assay [2] the target is T1, cathepsin B. As to the kind of experiment: fluorogenic substrate cleavage assay. In kind it is biochemical.

At cathepsin B [1], `CC(C)C[C@H](NC(=O)OCc1ccccc1)C(=O)N[C@H](C=O)C[C@@H]1CCNC1=O` [GC-373] registered an IC50 of 9.67 nM. That is a single-digit nanomolar value.

As to `Cc1cc(=O)oc2cc(NC(=O)[C@H](CCCNC(=N)N)NC(=O)[C@H](CC(C)C)NC(=O)OCc3ccccc3)ccc12` [Z-Leu-Arg-AMC], at cathepsin B [2], the “fluorogenic substrate cleavage assay” value was “The cleavage at the site between arginine and AMC dye by cathepsin B resulted in the increase of fluorescence intensity”.
